Values of other authors, collected in patent US7714131B2, “Process for the stereoselective preparation of (−)-halofenate and derivatives thereof” (Metabolex, Inc., priority 2005, dated 2010).

Target: cytochrome P450 2C9 (Homo sapiens, UniProt P11712)
Details: compared to the (+)-enantiomer of halofenic acid

Sequence of cytochrome P450 2C9 (P11712 whole entry): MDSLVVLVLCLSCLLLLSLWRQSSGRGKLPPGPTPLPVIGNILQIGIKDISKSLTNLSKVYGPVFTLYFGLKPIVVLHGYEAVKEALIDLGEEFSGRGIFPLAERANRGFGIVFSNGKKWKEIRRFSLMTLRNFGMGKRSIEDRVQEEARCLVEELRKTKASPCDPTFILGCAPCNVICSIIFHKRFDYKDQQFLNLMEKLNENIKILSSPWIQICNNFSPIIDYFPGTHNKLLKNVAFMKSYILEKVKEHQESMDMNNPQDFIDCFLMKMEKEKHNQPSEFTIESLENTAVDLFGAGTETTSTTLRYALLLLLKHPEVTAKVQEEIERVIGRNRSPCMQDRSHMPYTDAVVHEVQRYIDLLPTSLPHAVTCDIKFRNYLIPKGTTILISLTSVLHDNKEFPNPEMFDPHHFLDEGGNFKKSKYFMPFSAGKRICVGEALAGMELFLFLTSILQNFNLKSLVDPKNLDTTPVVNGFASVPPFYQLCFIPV

For `O=C(O)C(Oc1cccc(C(F)(F)F)c1)c1ccc(Cl)cc1` (single isomer, unassigned; (-)) [(−)-enantiomer of halofenic acid, (4-chlorophenyl)(3-trifluoromethylphenoxy)acetic acid], the “ability to inhibit cytochrome P450 2C9, relative activity” value is given as “about twenty-fold less active”.
